In patent publication US20150191484A1, “NOVEL COMPOUNDS HAVING A TETRACYCLIC IRIDOID SKELTON AND AN ANTI-TRYPANOSOMAL AGENT COMPRISING THE SAME AS AN ACTIVE INGREDIENT” (NATIONAL UNIVERSITY CORPORATION TOKYO MEDICAL AND DENTAL …, priority 2014, published 2015):
Entries after “also recorded” stand apart in the source; their conditions may differ.

Key:
[1] = system: KATOIII (stomach cancer); experiment: MTT cytotoxicity assay, KATOIII; type: cell-based, human; details: IC50 against KATOIII / IC50 against T. brucei
Experimental: (§1) The cytotoxic activity of natural products against mammalian cells is an important point in the search for active compounds with biological activity. […] In order to confirm the selective and potent anti-trypanosomal activity of ML-2-2 and ML-2-3, we examined their cytotoxicity in a panel of human cell lines including two human fibroblastic and 8 human cancer-derived cell lines. Cells were seeded in 96-well microplates and incubated with ML-2-2 and ML-2-3 for 48 h at 37° C. in a 5% CO2 humidified incubator. The viabilities of cells were determined with the MTT (3-(4,5-dimethylthiazol-2-yl)-2-5-diphenyltetrazolium bromide) assay. The selectivity index (SI) was determined using the following equation: IC50 against human cells/IC50 against T. brucei. The IC50 values of ML-2-3 were higher than those of ML-2-2 in all the cell lines examined. […] The SI of ML-2-2 indicates values below 1.00 in most cell lines. On the other hand, SI values of ML-2-3 were much higher than those of ML-2-2 in all tested cell lines.

[2] = MTT cytotoxicity assay, KATOIII; type: cell-based, human; details: human, KATOIII stomach cancer cells; KATOIII stomach cancer, 48 h, MTT
Experimental: as §1

[3] = MTT cytotoxicity assay, U937; type: cell-based, human; details: human, U937 leukemia cells; U937 leukemia, 48 h, MTT
Experimental: as §1

[4] = system: U937 (leukemia); experiment: MTT cytotoxicity assay, U937; type: cell-based, human; details: IC50 against U937 / IC50 against T. brucei
Experimental: as §1

[5] = system: Caco2 (colon cancer); experiment: MTT cytotoxicity assay, Caco2; type: cell-based, human; details: IC50 against Caco2 / IC50 against T. brucei
Experimental: as §1

[6] = MTT cytotoxicity assay, Caco2; type: cell-based, human; details: human, Caco2 colon cancer cells; Caco2 colon cancer, 48 h, MTT
Experimental: as §1

[7] = system: Jurkat (leukemia); experiment: MTT cytotoxicity assay, Jurkat; type: cell-based, human; details: IC50 against Jurkat / IC50 against T. brucei
Experimental: as §1

[8] = MTT cytotoxicity assay, Jurkat; type: cell-based, human; details: human, Jurkat leukemia cells; Jurkat leukemia, 48 h, MTT
Experimental: as §1

[9] = system: GUTat 3.1 strain of the bloodstream forms of T. b. brucei parasites; experiment: Alamar Blue assay (trypanocidal activity); type: cell-based, Trypanosoma brucei brucei; details: Trypanosoma brucei, 48 h, T. b. brucei, Alamar Blue, 48 h; read-out: IC50 of anti-trypanosomal activity
Experimental: (§2) The GUTat 3.1 strain of the bloodstream forms of T. b. brucei parasites was used for this study. Parasites were cultured in vitro according to the conditions established by Yabu et al, 1998.
(§3) Parasites were used when they reached a confluent concentration of 1×10^6 parasites/ml. Estimation of parasitemia was done with the Neubauer's counting chamber. Parasites were diluted to a concentration of 3×10^5 parasites/ml with HMI-9 medium and used for the various experiments.
The Alamar Blue assay was carried out in a 96-well plate. About 1.5×10^4 Parasites were seeded with varied concentrations of the Morinda lucida crude extract, ranging from as low as 0.78 μg/ml to as high as 200 μg/ml, in a ratio of 1:1 in 100 μl volume per well. Berberine, a compound known as anti-trypanocidal agent, was used as a positive control. […] The parasites were incubated with the plant extracts for 24 hours at 37° C. and under 5% CO2. After 24 hours, 10% Alamar Blue dye was added to each well and re-incubated for another 24 hours under the same conditions but in darkness. After a total of 48 hours, the plate was read for absorbance at 540 nm using the TECAN Sunrise Wako Spectrophotometer. An Absorbance-concentration (extract) curve was drawn and the IC50 value of the plant extract was extrapolated. Alamar Blue assay was also performed on the fractions and compounds purified from Morinda Lucida to determine their IC50 values. The IC50 values obtained were compared with that of the positive control and trypanocidal activity determined.

[10] = system: Trypanosoma cells; experiment: Nexin apoptosis assay (FACS); type: cell-based, Trypanosoma brucei brucei
Experimental: as §2, §3
This assay was performed to detect both Phosphatidylserine (PS) signal and fracture of nuclear membraneas markers of apoptosis. Seeding and incubation of parasites with plant materials (extracts, fractions and compounds) were done under the same conditions in Alamar Blue assay. […] The contents of the wells were then subjected to FACS analysis using, the Millipore guava easyCyte 5HT FACS machine for the sorting and estimation of apoptotic parasites according to the manufacturer's instructions.

[11] = MTT cytotoxicity assay, NB1RGB; type: cell-based, human; details: human, NB1RGB normal fibroblast cells; NB1RGB normal fibroblast, 48 h, MTT
Experimental: as §1

[12] = system: NB1RGB (normal fibroblast); experiment: MTT cytotoxicity assay, NB1RGB; type: cell-based, human; details: IC50 against NB1RGB / IC50 against T. brucei
Experimental: as §1

[13] = MTT cytotoxicity assay, HF-19; type: cell-based, human; details: human, HF-19 normal fibroblast cells; HF-19 normal fibroblast, 48 h, MTT
Experimental: as §1

[14] = system: HF-19 (normal fibroblast); experiment: MTT cytotoxicity assay, HF-19; type: cell-based, human; details: IC50 against HF-19 / IC50 against T. brucei
Experimental: as §1

[15] = MTT cytotoxicity assay, HL-60; type: cell-based, human; details: human, HL-60 leukemia cells; HL-60 leukemia, 48 h, MTT
Experimental: as §1

[16] = system: HL-60 (leukemia); experiment: MTT cytotoxicity assay, HL-60; type: cell-based, human; details: IC50 against HL-60 / IC50 against T. brucei
Experimental: as §1

[17] = MTT cytotoxicity assay, LoVo; type: cell-based, human; details: human, LoVo colon cancer cells; LoVo colon cancer, 48 h, MTT
Experimental: as §1

[18] = system: LoVo (colon cancer); experiment: MTT cytotoxicity assay, LoVo; type: cell-based, human; details: IC50 against LoVo / IC50 against T. brucei
Experimental: as §1

[19] = system: THP-1 (leukemia); experiment: MTT cytotoxicity assay, THP-1; type: cell-based, human; details: IC50 against THP-1 / IC50 against T. brucei
Experimental: as §1

[20] = MTT cytotoxicity assay, THP-1; type: cell-based, human; details: human, THP-1 leukemia cells; THP-1 leukemia, 48 h, MTT
Experimental: as §1

[21] = system: HCT-15 (colon cancer); experiment: MTT cytotoxicity assay, HCT-15; type: cell-based, human; details: IC50 against HCT-15 / IC50 against T. brucei
Experimental: as §1

[22] = MTT cytotoxicity assay, HCT-15; type: cell-based, human; details: human, HCT-15 colon cancer cells; HCT-15 colon cancer, 48 h, MTT
Experimental: as §1

[23] = system: Trypanosoma cells; experiment: Cell cycle assay (FACS); type: cell-based, Trypanosoma brucei brucei; details: four times of IC50: 15 μM ML-2-3, 5 μM ML-2-2; 24 hours
Experimental: as §2, §3
This assay was performed to investigate any abnormal change in the parasites' cell cycle which may be caused by extracts/compounds with trypanocidal effect. […] The parasites were collected and transferred into 15 ml centrifuge tubes and centrifuged at 1700 rpm for 10 min, after which the supernatant was discarded. The pelleted parasites were re-suspended in 5 ml PBS solution and vortexed to form a suspension. The parasite suspension was centrifuged at 1700 rpm for 10 min and the supernatant discarded. The pelleted parasites were re-suspended in 1.5 ml of PBS and vortexed thoroughly before adding 3.5 ml absolute EtOH gradually to a final volume of 5 ml 70% EtOH. The parasites were then fixed at −20° C. for 1 h. The cell suspension was then centrifuged at 1700 rpm for 10 min and the supernatant discarded. Pelleted parasites were re-suspended in 200 μl of Guava Cell Cycle reagent, which has Propidium Iodide as its main constituent and incubated at room temperature for 30 min. The solution was transferred to wells of 96-well plate. The well contents were then subjected to FACS analysis using the Millipore guava easyCyte 5HT FACS machine, for the sorting of parasites according to the manufacturer's instructions.

[24] = system: Leishmania; details: reported in literature; cited from earlier work
[25] = system: nuclear DNA of Trypanosoma cells; details: reported in literature; cited from earlier work

COC(=O)C1=CO[C@@H]2O[C@H]3/C(=C\c4ccc(O)c(OC)c4)C(=O)O[C@]34C=C[C@H]1[C@H]24 [ML-2-2, (3aS,4aR,4a^1S,7aS,9aS,3E)-methyl 3-(4-hydroxy-3-methoxybenzylidene)-2-oxo-2,3,3a,4a,4a^1,7a-hexahydro-1,4,5-trioxadicyclopenta[a,hi]indene-7-carboxylate]
SI (selectivity index) [1]: 0.17
IC50 at 48 h [2]: 0.21 µM
IC50 at 48 h [3]: 4.08 µM
SI (selectivity index) [4]: 3.21
SI (selectivity index) [5]: 1.06
IC50 at 48 h [6]: 1.35 µM
SI (selectivity index) [7]: 1.93
IC50 at 48 h [8]: 2.45 µM
IC50 [9]: 1.27 µM
induction of apoptosis ([10]; 6.25 μM, 24-hour incubation): no significant induction of apoptosis
induction of apoptosis in Trypanosoma cells ([10]; same concentration (6 μM)): did not
IC50 at 48 h [11]: 6.01 µM
SI (selectivity index) [12]: 4.73
IC50 at 48 h [13]: 12.1 µM
SI (selectivity index) [14]: 9.54
IC50 at 48 h [15]: 3.87 µM
SI (selectivity index) [16]: 3.05
IC50 at 48 h [17]: 0.11 µM
SI (selectivity index) [18]: 0.09
SI (selectivity index) [19]: 5.50
IC50 at 48 h [20]: 6.98 µM
SI (selectivity index) [21]: 12.63
IC50 at 48 h [22]: 16 µM
numbers of cells in the G2 and M phase of cell cycle [23]: did not; also recorded: had no effect

COC(=O)C1=CO[C@H]2O[C@@H]3/C(=C\c4ccc(O)c(OC)c4)C(=O)O[C@@]34C=C[C@@H]1[C@H]24 [Oruwacin]
anti-Leishmania activity [24]: has anti-Leishmania activity

N=C(N)c1ccc(OCCCCCOc2ccc(C(=N)N)cc2)cc1 [Pentamidine]
effect on nuclear DNA of Trypanosoma cells [25]: no effect on nuclear DNA
